# Source: the SangsterLogP compilation
# Assay: method code SF-AS, from Novello, F.; Sprague, M. (1967). Structure-activity relations among the thiazole diuretics. Ind. Chim. Belge, 32(Spec.No.), 222-225.
# Settings: pH 6.4
row,logD,Compound
1,1.11,NS(=O)(=O)c1cc2c(cc1Cl)NC(CSCc1ccccc1)NS2(=O)=O (stereo not drawn)

# Same assay, conditions: pH 6.5
row,logD,Compound
1,0.93,NS(=O)(=O)c1cc2c(cc1Cl)NC(Cc1ccccc1)NS2(=O)=O (stereo not drawn)
2,1.24,NS(=O)(=O)c1ccc2c(c1)S(=O)(=O)NC(CC1CCCC1)N2 (stereo not drawn)
3,1.56,CC1CCC2(CC1)Nc1ccc(S(N)(=O)=O)cc1S(=O)(=O)N2 (stereo not drawn)
4,1.03,NS(=O)(=O)c1ccc2c(c1)S(=O)(=O)NC(Cc1ccccc1)N2 (stereo not drawn)
5,0.3,CCC1Nc2cc(Cl)c(S(N)(=O)=O)cc2S(=O)(=O)N1 (stereo not drawn)
6,0.08,NS(=O)(=O)c1cc2c(cc1[N+](=O)[O-])N=CNS2(=O)=O
7,0.11,NS(=O)(=O)c1cc2c(cc1Cl)NC(CCl)NS2(=O)=O (stereo not drawn)
8,0.49,NS(=O)(=O)c1cc2c(cc1Cl)NC(C(F)(F)F)NS2(=O)=O (stereo not drawn)
9,0.08,CC1Nc2cc(Cl)c(S(N)(=O)=O)cc2S(=O)(=O)N1 (stereo not drawn)
10,0.2,NS(=O)(=O)c1cc2c(cc1[N+](=O)[O-])NCNS2(=O)=O
11,0.46,NS(=O)(=O)c1ccc2c(c1)S(=O)(=O)NC(C(Cl)Cl)N2 (stereo not drawn)
12,-0.52,NS(=O)(=O)c1ccc2c(c1)S(=O)(=O)NCN2
13,0.08,NS(=O)(=O)c1cc2c(cc1Br)NCNS2(=O)=O
14,-0.29,NS(=O)(=O)c1cc2c(cc1F)N=CNS2(=O)=O
15,-0.32,Cc1cc2c(cc1S(N)(=O)=O)S(=O)(=O)N=CN2
16,-0.62,NS(=O)(=O)c1ccc2c(c1)S(=O)(=O)NC=N2
17,0.15,CC1(C)Nc2cc(Cl)c(S(N)(=O)=O)cc2S(=O)(=O)N1
18,-0.22,Cc1cc2c(cc1S(N)(=O)=O)S(=O)(=O)NCN2
19,0.32,NS(=O)(=O)c1cc2c(cc1C(F)(F)F)N=CNS2(=O)=O
20,0,NS(=O)(=O)c1cc2c(cc1Br)N=CNS2(=O)=O

# Further lines, the molecule ahead of its results:
row,Compound,logD
1,NS(=O)(=O)c1cc2c(cc1C(F)(F)C(F)(F)F)N=CNS2(=O)=O,1.05
2,CC(C)(C)C1Nc2cc(Cl)c(S(N)(=O)=O)cc2S(=O)(=O)N1 (stereo not drawn),0.36
3,CC1=Nc2cc(Cl)c(S(N)(=O)=O)cc2S(=O)(=O)N1,0.03
4,NS(=O)(=O)c1cc2c(cc1Cl)NC(C(Cl)(Cl)Cl)NS2(=O)=O (stereo not drawn),0.82
5,CC1CCC2(CC1)Nc1cc(Cl)c(S(N)(=O)=O)cc1S(=O)(=O)N2 (stereo not drawn),0.85
6,NS(=O)(=O)c1cc2c(cc1Cl)NC(C1CC3C=CC1C3)NS2(=O)=O (stereo not drawn),1.8
7,NS(=O)(=O)c1cc2c(cc1Cl)N=C(c1ccccc1)NS2(=O)=O,1.1
8,NS(=O)(=O)c1cc2c(cc1Cl)NC1(CCCCC1)NS2(=O)=O,1
9,CCCC1=Nc2cc(Cl)c(S(N)(=O)=O)cc2S(=O)(=O)N1,1.15
10,NS(=O)(=O)c1cc2c(cc1Cl)NC(CC1CCCC1)NS2(=O)=O (stereo not drawn),1.27
11,CCCCCC1=NS(=O)(=O)c2cc(S(N)(=O)=O)c(Cl)cc2N1,2.01
12,NS(=O)(=O)c1cc2c(cc1Cl)N=C(Cc1ccccc1)NS2(=O)=O,1.56
